These results are taken from US7709481B2, “Phenyl-1,2,4-oxadiazolone derivatives, processes for their preparation and methods for their use as pharmaceuticals” (Sanofi-Aventis, priority 2005, dated 2010).

Read-outs that look alike come from different tables or passages of the source.

For assay [1], the system named is PPARdelta/PPARalpha. The settings on record: two weeks clinical trials in healthy volunteers; cited from earlier work.
In assay [2] the test system is PPARdelta/PPARalpha. The settings on record: rhesus and cynomolgus monkeys; cited from earlier work.
The target in assay [3] is T1, PPARdelta (Mus musculus, UniProt P35396).
T1 sequence (P35396 1-440): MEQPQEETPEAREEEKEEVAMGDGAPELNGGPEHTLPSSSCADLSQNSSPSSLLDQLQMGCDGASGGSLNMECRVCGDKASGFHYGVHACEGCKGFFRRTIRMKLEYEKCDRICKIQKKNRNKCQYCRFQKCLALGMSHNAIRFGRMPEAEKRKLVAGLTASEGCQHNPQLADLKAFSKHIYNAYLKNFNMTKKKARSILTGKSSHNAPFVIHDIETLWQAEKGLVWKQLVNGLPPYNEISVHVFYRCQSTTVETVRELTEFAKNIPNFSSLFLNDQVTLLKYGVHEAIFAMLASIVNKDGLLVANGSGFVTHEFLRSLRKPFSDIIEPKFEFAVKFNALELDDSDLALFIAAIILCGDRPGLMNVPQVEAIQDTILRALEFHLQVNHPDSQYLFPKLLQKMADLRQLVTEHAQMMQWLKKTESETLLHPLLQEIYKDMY
The settings on record: diabetic animal model; cited from earlier work.

For assay [4], the target named is T2, human PPARalpha (Homo sapiens, UniProt Q07869).
T2 construct: human PPARalpha receptor (amino acids S167-Y468); expressed in transfected cells; plasmid pcDNA3
T2 sequence (Q07869 167-468): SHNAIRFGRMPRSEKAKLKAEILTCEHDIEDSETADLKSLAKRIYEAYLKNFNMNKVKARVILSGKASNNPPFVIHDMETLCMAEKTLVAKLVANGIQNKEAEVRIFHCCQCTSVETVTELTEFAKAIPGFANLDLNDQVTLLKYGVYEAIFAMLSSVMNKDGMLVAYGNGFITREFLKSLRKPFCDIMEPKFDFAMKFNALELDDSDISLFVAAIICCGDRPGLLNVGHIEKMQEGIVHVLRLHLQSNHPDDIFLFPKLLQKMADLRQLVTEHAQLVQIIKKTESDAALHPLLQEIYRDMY
Kind of assay: Cellular PPARalpha assay (HEK PPARalpha reporter cell line, luciferase). Type of assay: cell-based. The settings on record: 24 h incubation. How it is done:
The activity of the compounds was tested as follows. The potency of substances which bind to human PPARalpha and activate it in an agonistic manner is analyzed using a stably transfected HEK cell line (HEK=human embryo kidney) which is referred to here as PPARalpha reporter cell line. It contains two genetic elements, a luciferase reporter element (pdeltaM-GAL4-Luc-Zeo) and a PPARalpha fusion protein (GR-GAL4-humanPPARalpha-LBD) which mediates expression of the luciferase reporter element depending on a PPARalpha ligand. The stably and constitutively expressed fusion protein GR-GAL4-humanPPARalpha-LBD binds in the cell nucleus of the PPARalpha reporter cell line via the GAL4 protein portion to the GAL4 DNA binding motifs 5′-upstream of the luciferase reporter element which is stably integrated in the genome of the cell line. There is only weak expression of the luciferase reporter gene in the absence of a PPARalpha ligand if fatty acid-depleted fetal calf serum (cs-FCS) is used in the assay. PPARalpha ligands bind and activate the PPARalpha fusion protein and thereby stimulate the expression of the luciferase reporter gene. The luciferase which is formed can be detected by means of chemiluminescence via an appropriate substrate.
The PPARalpha reporter cell line was prepared in two stages. Firstly, the luciferase reporter element was constructed and stably transfected into HEK cells. For this purpose, five binding sites of the yeast transcription factor GAL4 (Accession # AF264724) were cloned in 5′-upstream of a 68 bp-long minimal MMTV promoter (Accession # V01175). The minimal MMTV promoter section contains a CCAAT box and a TATA element in order to enable efficient transcription by RNA polymerase II. The cloning and sequencing of the GAL4-MMTV construct took place in analogy to the description of Sambrook J. et. al. (Molecular cloning, Cold Spring Harbor Laboratory Press, 1989). Then the complete Photinus pyralis gene (Accession # M15077) was cloned in 3′-downstream of the GAL4-MMTV element. After sequencing, the luciferase reporter element consisting of five GAL4 binding sites, MMTV promoter and luciferase gene was recloned into a plasmid which confers zeocin resistance in order to obtain the plasmid pdeltaM-GAL4-Luc-Zeo. This vector was transfected into HEK cells in accordance with the statements in Ausubel, F. M. et al. (Current protocols in molecular biology, Vol. 1-3, John Wiley & Sons, Inc., 1995).
In a second step, the PPARalpha fusion protein (GR-GAL4-humanPPARalpha-LBD was introduced into the stable cell clone described. For this purpose, initially the cDNA coding for the N-terminal 76 amino acids of the glucocorticoid receptor (Accession # P04150) was linked to the cDNA section coding for amino acids 1-147 of the yeast transcription factor GAL4 (Accession # P04386). The cDNA of the ligand-binding domain of the human PPARalpha receptor (amino acids S167-Y468; Accession # S74349) was cloned in at the 3′-end of this GR-GAL4 construct. The fusion construct prepared in this way (GR-GAL4-humanPPARalpha-LBD) was recloned into the plasmid pcDNA3 (Invitrogen) in order to enable constitutive expression therein by the cytomegalovirus promoter. This plasmid was linearized with a restriction endonuclease and stably transfected into the previously described cell clone containing the luciferase reporter element. The finished PPARalpha reporter cell line which contains a luciferase reporter element and constitutively expresses the PPARalpha fusion protein (GR-GAL4-human PPARalpha-LBD) was isolated by selection with zeocin (0.5 mg/ml) and G418 (0.5 mg/ml).
The activity of PPARalpha agonists is determined in a 3-day assay which is described below: […]

Assay [5] has as its target T3, human PPARdelta (Homo sapiens, UniProt Q03181).
T3 construct: human PPARdelta receptor (amino acids S139-Y441); expressed in transfected cells; plasmid pcDNA3
T3 sequence (Q03181 139-441): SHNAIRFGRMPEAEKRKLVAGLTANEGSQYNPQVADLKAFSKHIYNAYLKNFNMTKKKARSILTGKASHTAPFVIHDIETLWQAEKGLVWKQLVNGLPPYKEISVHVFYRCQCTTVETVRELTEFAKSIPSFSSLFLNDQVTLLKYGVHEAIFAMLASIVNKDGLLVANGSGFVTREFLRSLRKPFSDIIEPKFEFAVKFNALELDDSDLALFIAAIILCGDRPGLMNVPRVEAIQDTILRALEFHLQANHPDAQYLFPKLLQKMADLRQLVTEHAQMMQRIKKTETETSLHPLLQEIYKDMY
Kind of assay: Cellular PPARdelta assay (HEK PPARdelta reporter cell line, luciferase). Type of assay: cell-based. The settings on record: 24 h incubation. As for the experimental part:
The raw data from the luminometer are transferred into a Microsoft Excel file. Dose-effect plots and EC50 values of PPAR agonists are calculated using the XL.Fit program as specified by the manufacturer (IDBS). […] Compounds of the invention of the formula I activate the PPARalpha receptor. Determination of EC50 values of PPAR agonists in the cellular PPARdelta assay The potency of substances which bind to human PPARdelta and activate it in an agonistic manner is analyzed using a stably transfected HEK cell line (HEK=human embryo kidney) which is referred to here as PPARdelta reporter cell line. In analogy to the assay described for PPARalpha, the PPARdelta reporter cell line also contains two genetic elements, a luciferase reporter element (pdeltaM-GAL4-Luc-Zeo) and a PPARdelta fusion protein (GR-GAL4-humanPPARdelta-LBD) which mediates expression of the luciferase reporter element depending on a PPARdelta ligand. The stably and constitutively expressed fusion protein GR-GAL4-humanPPARdelta-LBD binds in the cell nucleus of the PPARdelta reporter cell line via the GAL4 protein portion to the GAL4 DNA binding motifs 5′-upstream of the luciferase reporter element which is stably integrated in the genome of the cell line. There is only little expression of the luciferase reporter gene in the absence of a PPARdelta ligand if fatty acid-depleted fetal calf serum (cs-FCS) is used in the assay. PPARdelta ligands bind and activate the PPARdelta fusion protein and thereby stimulate expression of the luciferase reporter gene. The luciferase which is formed can be detected by means of chemiluminescence via an appropriate substrate.
The production of the stable PPARdelta reporter cell line is based on a stable HEK-cell clone which was stably transfected with a luciferase reporter element. This step was already described above in the section “construction of the PPARalpha reporter cell line”. In a second step, the PPARdelta fusion protein (GR-GAL4-humanPPARdelta-LBD was stably introduced into this cell clone. For this purpose, the cDNA coding for the N-terminal 76 amino acids of the glucocorticoid receptor (Accession # P04150) was linked to the cDNA section coding for amino acids 1-147 of the yeast transcription factor GAL4 (Accession # P04386). The cDNA of the ligand-binding domain of the human PPARdelta receptor (amino acids S139-Y441; Accession # L07592) was cloned in at the 3′-end of this GR-GAL4 construct. The fusion construct prepared in this way (GR-GAL4-humanPPARdelta-LBD) was recloned into the plasmid pcDNA3 (Invitrogen) in order to enable constitutive expression by the cytomegalovirus promoter. This plasmid was linearized with a restriction endonuclease and stably transfected into the previously described cell clone containing the luciferase reporter element. The resulting PPARdelta reporter cell line which contains a luciferase reporter element and constitutively expresses the PPARdelta fusion protein (GR-GAL4-human PPARdelta-LBD) was isolated by selection with zeocin (0.5 mg/ml) and G418 (0.5 mg/ml).
The activity of PPARdelta agonists is determined in a 3-day assay in exact analogy to the procedure already described for the PPARalpha reporter cell line except that the PPARdelta reporter cell line and a specific PPARdelta agonist was used as a standard to control test efficacy. PPARdelta EC50 values in the range from 0.3 nM to >10 μM were measured for the PPAR agonists of Examples 1 to 69 described in this application. Compounds of the invention of the formula I activate the PPARdelta receptor.

Assay [6] has as its system PPARdelta. The settings on record: obese, insulin resistant rhesus monkeys; cited from earlier work.

Consider `CCCc1c(OCCCSc2nnc(SCC(=O)O)s2)ccc(C(C)=O)c1O` [YM-16638], for which the plasma lipids result in assay [1] is “acts in a similar manner”; in assay [2], “significantly lowers plasma lipids”. In the case of `CCCc1c(OCCCOc2ccc(OCC(=O)O)cc2)ccc(C(C)=O)c1O` [Example L-165041], the plasma cholesterol entry in assay [3] was “raises plasma cholesterol”.

With `Cc1nc(-c2ccc(C(F)(F)F)nc2)sc1C(OCc1ccc(-c2noc(=O)[nH]2)c(F)c1)C(F)(F)F` (stereo not shown) [Example 31, 3-(2-Fluoro-4-{2,2,2-trifluoro-1-[4-methyl-2-(6-trifluoromethyl-pyridin-3-yl)-thiazol-5-yl]-ethoxymethyl}-phenyl)-4H-[1,2,4]oxadiazol-5-one], the EC50 in assay [4] is greater than 33000 nM; in assay [5] it was 14 nM. On to `CCC(Oc1cc(OC)c(-c2noc(=O)[nH]2)cc1F)c1sc([C@H]2CC[C@H](C(F)(F)F)CC2)nc1C` (stereo partly drawn) [Example 51, 3-(5-Fluoro-2-methoxy-4-{1-[4-methyl-2-(trans-1,4-trifluoromethyl-cyclohexyl)-thiazol-5-yl]-propoxy}-phenyl)-4H-1,2,4-oxadiazol-5-one], for which the EC50 in assay [4] came out at 335 nM; in assay [5], 7 nM. Consider `COCc1nc([C@H]2CC[C@H](c3ccc(Cl)cc3)CC2)sc1COc1ccc(-c2noc(=O)[nH]2)c(Cl)c1` [Example 12, Trans-3-(2-Chloro-4-{2-[4-(4-chloro-phenyl)-cyclohexyl]-4-methoxymethyl-thiazol-5-ylmethoxy}-phenyl)-4H-[1,2,4]oxadiazol-5-one], for which the EC50 in assay [4] stood at 800 nM; in assay [5], 10 nM.

Turning to `O=c1[nH]c(-c2cc(F)c(OCc3sc([C@H]4CC[C@H](C(F)(F)F)CC4)nc3CN3CCC(C(F)(F)F)CC3)cc2OC(F)F)no1` [Example 62, 3-{2-Difluoromethoxy-5-fluoro-4-[2-(trans-1,4-trifluoromethyl-cyclohexyl)-4-(4-trifluoromethyl-piperidin-1-ylmethyl)-thiazol-5-ylmethoxy]-phenyl}-4H-1,2,4-oxadiazol-5-one], the EC50 was greater than 33000 nM in assay [4] and 52 nM in assay [5].

In the case of `Cc1cc(SCc2sc(-c3ccc(C(F)(F)F)cc3)nc2C)ccc1OCC(=O)O` [GW501516], in assay [6], the HDL-cholesterol entry is “raises HDL-cholesterol”; the “plasma LDL-cholesterol, triglycerides and insulin levels” value is “decreases plasma LDL-cholesterol, triglycerides and insulin levels”.
